Results as given in patent US11840528B2 (Hoffmann-La Roche Inc., priority 2018, dated 2023).

Key:
h-GABA-A α5β3γ2 [1] = target: T1, h-GABA-A α5β3γ2 (Homo sapiens, UniProt P18507+P31644); experiment: Two-electrode voltage clamp electrophysiology in Xenopus laevis oocytes expressing GABAA receptors, modulation of GABA EC20 current; type: cell-based; design: host or cells: Xenopus laevis oocytes micro-injected with RNA transcripts of the subunits
Method: Xenopus laevis oocytes at maturation stages V-VI were used for the expression of cloned mRNA encoding GABAA receptor subunits. Oocytes ready for RNA micro-injection were bought from Ecocyte, Castrop-Rauxel, Germany and stored in modified Barth's medium (composition in mM: NaCl 88, KCl 1, NaHCO32.4, HEPES 10, MgSO4 0.82, CaNO3 0.33, CaCl2 0.33, pH=7.5) at 20° C. until the experiment.
Oocytes were plated in 96-well plates to be used in an automated instrument (Robo-ocyte, MultiChannelSystems, Reutlingen, Germany) for microinjection and electrophysiological recordings. Approximately 50 nl of an aqueous solution containing the RNA transcripts for the subunits of the desired GABAA receptor was injected into each oocyte. RNA concentrations ranged between 0.3 and 16 ng/μl/subunit and were adjusted in pilot experiments to obtain GABA responses of a suitable size and a maximal effect of the reference modulator, Beta-CCM (β-CCM), a betacarboline negative allosteric modulator (NAM) at the GABAA receptor benzodiazepine (BZD) binding site or Midazolam, a benzodiazepine positive allosteric modulator (PAM) at the GABAA receptor benzodiazepine (BZD) binding site. The concentration of the γ2 subunit encoding RNA usually was 5- to 10-fold higher than the RNAs encoding the other subunits. Oocytes were kept in modified Barth's medium (composition in mM: NaCl 88, KCl 1, NaHCO3 4, HEPES 10, MgSO4 0.82, CaNO3 0.33, CaCl2) 0.33, pH=7.5) at 20° C. until the experiment.
Electrophysiological experiments were performed on days 3 to 5 after the micro-injection of mRNA. During the experiment the oocytes were constantly superfused by a solution containing (in mM) NaCl 90, KCl 1, HEPES 5, MgCl2 1, CaCl2) 1 (pH 7.4). Oocytes were impaled by two glass microelectrodes (resistance: 0.4 MΩ) which were filled with a solution containing KCl 1M+K-acetate 1.5 M and voltage-clamped to −80 mV. The recordings were performed at room temperature using the Roboocyte two-electrode voltage clamp system (Multichannelsystem). After an initial equilibration period of 1.5 min GABA was added for 1.5 min at a concentration evoking approximately 20% of a maximal current response (EC20). After another rest interval of 2.5 min GABA was again added evoking a response of similar amplitude and shape. 0.5 min after the onset of this second GABA application the test compound, at a concentration corresponding to approximatively 30 fold its Ki, was added while GABA was still present. Current traces were recorded at a digitization rate of 10 Hz during and shortly before and after the GABA application.
Each compound and concentration was tested on at least 3 oocytes. Different oocytes were used for different compound concentrations. β-CCM, a negative allosteric modulator, or Midazolam, a positive allosteric modulators, were tested on a few (3-6) oocytes on each 96-well plate for a positive control at a maximally effective. β-CCM inhibited the GABA-evoked current by approximatively 50% (Fold increase ˜0.5), while Midazolam potentiated the GABA-induced current by approximatively 150% (Fold increase ˜2.5).
For the analysis, the digitized current traces of the first and second GABA response were superimposed and, if necessary, rescaled to equal maximal amplitudes. The ratio between the two responses during the time interval of test compound application was calculated point by point. The extremum of the resulting “ratio trace” was taken as the efficacy (“Fold increase”) of the compound expressed as “% modulation of GABA EC20” (100*(Fold increase-1)).

h-GABA-A α5β3γ2 [2] = target: T1, h-GABA-A α5β3γ2; experiment: [3H]flumazenil competition binding assay, membranes of HEK293 cells expressing GABAA receptors; details: displacement of [3H]-Flumazenil 0.5 nM, HEK293 cells expressing human receptors, mean of two determinations; Table 1
Method: The affinity of compounds at GABAA receptor subtypes was measured by competition for [3H]flumazenil (85 Ci/mmol; Roche) binding to HEK293 cells expressing rat (stably transfected) or human (transiently transfected) receptors of composition α1β3γ2, α2β3γ2, α3β3γ2 and α5β3γ2.
Cell pellets were suspended in Krebs-tris buffer (4.8 mM KCl, 1.2 mM CaCl2), 1.2 mM MgCl2, 120 mM NaCl, 15 mM Tris; pH 7.5; binding assay buffer), homogenized by polytron for ca. 20 sec on ice and centrifuged for 60 min at 4° C. (50000 g; Sorvall, rotor: SM24=20000 rpm). The cell pellets were resuspended in Krebs-tris buffer and homogenized by polytron for ca. 15 sec on ice. Protein was measured (Bradford method, Bio-Rad) and aliquots of 1 mL were prepared and stored at −80° C.
Assays were incubated to equilibrium for 1 hour at 4° C. and harvested onto GF/C uni-filters (Packard) by filtration using a Packard harvester and washing with ice-cold wash buffer (50 mM Tris; pH 7.5). After drying, filter-retained radioactivity was detected by liquid scintillation counting. Ki values were calculated using Excel-Fit (Microsoft) and are the means of two determinations.

[3] = % modulation of GABA EC20 = 100*(Fold increase-1), Table 1
[4] = test compound at approx. 30 fold its Ki, GABA at EC20, Table 1
[5] = positive control at a maximally effective concentration, 3-6 oocytes per plate

SMILES	Efficacy (GABA) % (h-GABA-A α5β3γ2 [1]; [3]) [%]	Fold increase h-GABA-A α5β3γ2 oocyte (h-GABA-A α5β3γ2 [1]; [4])	Ki (h-GABA-A α5β3γ2 [2]) [µM]	Efficacy (GABA) % (h-GABA-A α5β3γ2 [1]; reference compounds, % modulation of GABA EC20, Table 2) [%]	Fold increase h-GABA-A α5β3γ2 oocyte (h-GABA-A α5β3γ2 [1]; reference compounds, Table 2)	Fold increase (h-GABA-A α5β3γ2 [1]; [5])	inhibition of the GABA-evoked current (h-GABA-A α5β3γ2 [1]; [5]) [%]	potentiation of the GABA-induced current (h-GABA-A α5β3γ2 [1]; [5]) [%]
CCOc1ccc(-c2cnn(Cc3c(-c4ccc(C)nc4)noc3C)c(=O)c2)cc1 [Example 79, 5-(4-ethoxyphenyl)-2-((5-methyl-3-(6-methylpyridin-3-yl)isoxazol-4-yl)methyl)pyridazin-3(2H)-one]	111	2.11	0.0161					
Cc1onc(-c2ncc(C(F)(F)F)cn2)c1Cn1ncc(N2CC(OC3CC3)C2)cc1=O [Example 249, 5-(3-cyclopropoxyazetidin-1-yl)-2-((5-methyl-3-(5-(trifluoromethyl)pyrimidin-2-yl)isoxazol-4-yl)methyl)pyridazin-3(2H)-one]	60	1.6	0.0022					
Cc1ccc(-c2noc(C)c2Cn2ncc(-c3cnn(CC(F)F)c3)cc2=O)cn1 [Example 153, 5-(1-(2,2-difluoroethyl)-1H-pyrazol-4-yl)-2-((5-methyl-3-(6-methylpyridin-3-yl)isoxazol-4-yl)methyl)pyridazin-3(2H)-one]	166	2.66	0.0242					
Cc1ccc(-c2noc(C)c2Cn2ncc(N3CC4CC(C3)O4)cc2=O)cn1 [Example 100, 2-[[5-methyl-3-(6-methyl-3-pyridyl)isoxazol-4-yl]methyl]-5-(6-oxa-3-azabicyclo[3.1.1]heptan-3-yl)pyridazin-3-one]	105	2.05	0.0122					
Cc1ccc(-c2noc(C)c2Cn2ncc(N3CCN(C4CC4)[C@@H](C)C3)cc2=O)cn1 [Example 60, 5-[(3S)-4-cyclopropyl-3-methyl-piperazin-1-yl]-2-[[5-methyl-3-(6-methyl-3-pyridyl)isoxazol-4-yl]methyl]pyridazin-3-one]	97	1.97	0.0102					
COC1CC2(C1)CN(c1cnn(Cc3c(-c4ccc(Cl)nc4)noc3C)c(=O)c1)C2 [Example 303]	138	2.38	0.0237					
Cc1ccc(-c2noc(C)c2Cn2ncc(N3CC(Oc4ccnc(Cl)c4)C3)cc2=O)nn1 [Example 236, 5-[3-[(2-chloro-4-pyridyl)oxy]azetidin-1-yl]-2-[[5-methyl-3-(6-methylpyridazin-3-yl)isoxazol-4-yl]methyl]pyridazin-3-one]	136	2.36	0.0029					
CCO[C@@H]1CN(c2cnn(Cc3c(-c4ccc(Cl)nc4)noc3C)c(=O)c2)[C@@H]1C [Example 294, 2-((3-(6-chloropyridin-3-yl)-5-methylisoxazol-4-yl)methyl)-5-((2R,3R)-3-ethoxy-2-methylazetidin-1-yl)pyridazin-3(2H)-one]	117	2.17	0.0418					
Cc1ccc(-c2noc(C)c2Cn2ncc(N3CC4(CC(C)CCO4)C3)cc2=O)nn1 (single isomer, unassigned) [Example 318]	111	2.11	0.0056					
Cc1ccc(-c2noc(C)c2Cn2ncc(-c3cnn(C)c3)cc2=O)cn1 [Example 103, 2-((5-methyl-3-(6-methyl-3-pyridyl)isoxazol-4-yl)methyl)-5-(1-methylpyrazol-4-yl)pyridazin-3-one]	141	2.41	0.0297					
Cc1onc(-c2ccc(F)cc2)c1Cn1ncc(N2CCN(C(=O)C3(C)CC3)CC2)cc1=O [Example 15, 2-((3-(4-Fluorophenyl)-5-methylisoxazol-4-yl)methyl)-5-(4-(1-methylcyclopropanecarbonyl)piperazin-1-yl)pyridazin-3(2H)-one]	120	2.2	0.0352					
Cc1ccc(-c2noc(C)c2Cn2ncc(-c3ccc(OC(C)C)nc3)cc2=O)cn1 [Example 190, 5-(6-isopropoxy-3-pyridyl)-2-((5-methyl-3-(6-methyl-3-pyridyl)isoxazol-4-yl)methyl)pyridazin-3-one]	146	2.46	0.0252					
CCCn1cc(-c2cnn(Cc3c(-c4ccc(C)nc4)noc3C)c(=O)c2)cn1 [Example 210, 2-((5-methyl-3-(6-methyl-3-pyridyl)isoxazol-4-yl)methyl)-5-(1-propylpyrazol-4-yl)pyridazin-3-one]	143	2.43	0.026					
Cc1onc(-c2ccc(Cl)nc2)c1Cn1ncc(N2CCN(c3cncnc3)CC2)cc1=O [Example 277, 2-((3-(6-chloropyridin-3-yl)-5-methylisoxazol-4-yl)methyl)-5-(4-(pyrimidin-5-yl)piperazin-1-yl)pyridazin-3(2H)-one]	131	2.31	0.0034					
CCn1cc(-c2cnn(Cc3c(-c4ccc(C)nc4)noc3C)c(=O)c2)cn1 [Example 155, 5-(1-ethyl-1H-pyrazol-4-yl)-2-((5-methyl-3-(6-methylpyridin-3-yl)isoxazol-4-yl)methyl)pyridazin-3(2H)-one]	133	2.33	0.0216					
Cc1ccc(-c2noc(C)c2Cn2ncc(N3CCC(O)CC3)cc2=O)cn1 [Example 5, 5-(4-hydroxy-1-piperidyl)-2-[[5-methyl-3-(6-methyl-3-pyridyl)isoxazol-4-yl]methyl]pyridazin-3-one]	155	2.55	0.0016					
Cc1ccc(-c2noc(C)c2Cn2ncc(N3CC4(CCC4)C3)cc2=O)cn1 [Example 69, 5-(2-azaspiro[3.3]heptan-2-yl)-2-[[5-methyl-3-(6-methyl-3-pyridyl)isoxazol-4-yl]methyl]pyridazin-3-one]	155	2.55	0.0389					
Cc1onc(-c2ccc(Cl)cn2)c1COc1ccc(C(=O)N2CCOCC2)cn1 [RO-309, reference compound]				−17	0.83			
COC(=O)c1cc2c(cn1)[nH]c1ccccc12 [β-CCM, reference compound]						~0.5	~50	
Cc1ncc2n1-c1ccc(Cl)cc1C(c1ccccc1F)=NC2 [Midazolam, reference compound]						~2.5		~150
